{"source": "PubChem BioAssay AID1259410", "about": "(Chemical Carcinogenesis Research Information System (CCRIS), 2018)", "origin": "cited, not measured here", "tested_on": "rodent tumor promotion studies, tumor incidence", "experiment": "CCRIS tumor promotion studies", "details": "Doses [Promoter]: 0", "data": [{"smiles": "Cc1ccc2cc3c(ccc4ccccc43)c3c2c1CC3", "values": [{"measurement": "outcome", "setting": "Carcinogen: N-BIS(2-HYDROXYPROPYL)NITROSAMINE, 53609-64-6, N-ETHYL-N-HYDROXYETHYLNITROSAMINE, 13147-25-6, 3,2'-DIMETHYL-4-AMINOB, Carcinogen: N-BIS(2-HYDROXYPROPYL)NITROSAMINE, 53609-64-6, N-ETHYL-N-HYDROXYETHYLNITROSAMINE, 13147-25-6, 3,2'-DIMETHYL-4-AMINOB, Doses [Carcinogen]: 1000 MG/KG IP IN SALINE ON DAY 1 AND 4, 1500 MG/KG IG IN DISTILLED WATER ON DAY 8 AND 11, 75 MG/KG SC IN CORN OIL ON D, Doses [Carcinogen]: 1000 MG/KG IP IN SALINE ON DAY 1 AND 4, 1500 MG/KG IG IN DISTILLED WATER ON DAY 8 AND 11, 75 MG/KG SC IN CORN OIL ON D, 0.02% IN DIET BEGINNING 1 WK POST LAST CARCINOGEN DOSE AND CONTINUING FOR 12 WK (STUDY DURATION: 16 WK), Route [Carcinogen]: INTRAPERITONEAL, GAVAGE, SUBCUTANEOUS, Route [Carcinogen]: INTRAPERITONEAL, GAVAGE, SUBCUTANEOUS, Route [Promoter]: ORAL, Species: RAT, Strain/Sex: F344/MALE", "value": "lung: adenoma or adenocarcinoma"}]}, {"smiles": "CC(N)Cc1ccccc1", "note": "(stereo not drawn)", "values": [{"measurement": "outcome", "setting": "Carcinogen: BITTNER MAMMARY TUMOR VIRUS, 0.4 MG/KG/D IN 1 ML/KG OF 0.9% SALINE FOR DURATION OF STUDY (STUDY DURATION: 730 D), Route [Promoter]: SUBCUTANEOUS, Species: MOUSE, Strain/Sex: C3H/FEMALE", "value": "mammary gland: tumor"}]}, {"smiles": "O=NN(CCO)CCO", "values": [{"measurement": "outcome", "setting": "Carcinogen: NITROSO(2-OXOPROPYL)AMINE, 60599-38-4, Doses [Carcinogen]: 12 MG/ML IN ETHYL ACETATE/CORN OIL (1:1) 2/WK FOR 2 WK, 100 MG/L IN DRINKING WATER 5 D/WK FOR 40 WK BEGINNING 1/WK POST CARCINOGEN TREATMENT (STUDY DURATION: 43 WK), Route [Carcinogen]: GAVAGE, Route [Promoter]: ORAL, Species: RAT, Strain/Sex: F344/MALE", "value": "kidney: renal cell carcinoma"}]}]}
